Measured values taken from the NIST ThermoML archive (doi:10.1021/je300631s).

Key:
[1] = for surface tension liquid-gas: Maximal bubble pressure; for mass density: 101.33 kPa, Vibrating tube method
[2] = refractive index (Na D-line) (dimensionless); conditions: 298.15 K; 101.33 kPa; Liquid; Standard Abbe refractometry
[3] = xn = mol fraction of the nth substance listed; conditions: 298.15 K, 101 kPa, Liquid, Vibrating tube method

Cc1ccc(C)o1 [2,5-dimethylfuran]
[1]
Conditions	surface tension liquid-gas [mN/m]
293.15 K	25.42
303.15 K	24.04
313.15 K	22.73
323.15 K	21.41
333.15 K	20.22
343.15 K	19.1
353.15 K	18.05
358.15 K	17.5

[1]
Conditions	Normal boiling temperature, Liquid [°C]	mass density, 293.15 K [kg/m3]	mass density, 298.15 K [kg/m3]	mass density, 303.15 K [kg/m3]	mass density, 313.15 K [kg/m3]	mass density, 323.15 K [kg/m3]	mass density, 333.15 K [kg/m3]	mass density, 343.15 K [kg/m3]	mass density, 353.15 K [kg/m3]	mass density, 358.15 K [kg/m3]
Ebulliometric method (Recirculating still)	93.68	–	–	–	–	–	–	–	–	–
Liquid	–	901.18	895.7	890.37	879.43	868.36	857.1	845.67	834.01	828.13

[1], Liquid, Ebulliometric method (Recirculating still)
Conditions	vapor or sublimation pressure [kPa]
331.46 K	30.01
335.51 K	35.01
339.09 K	40.01
342.32 K	45.01
345.26 K	50.01
348 K	55.01
350.53 K	60.01
352.9 K	65.01
355.13 K	70.01
357.24 K	75.01
359.24 K	80.01
361.13 K	85.01
362.95 K	90.01
364.69 K	95.01
366.79 K	101.33

Conditions	refractive index
[2]	1.4404

Cc1ccc(C)o1 [2,5-dimethylfuran] + CCCCCC
[3]
Conditions	mass density [kg/m3]
x2 = 0	895.7
x2 = 0.058	878.43
x2 = 0.103	865.07
x2 = 0.169	846.48
x2 = 0.211	834.86
x2 = 0.284	815.33
x2 = 0.326	804.35
x2 = 0.373	792.42
x2 = 0.425	779.22
x2 = 0.474	767.35
x2 = 0.523	755.53
x2 = 0.577	743.04
x2 = 0.671	722.12
x2 = 0.73	709.38
x2 = 0.854	683.63
x2 = 0.915	671.56
x2 = 0.979	659.09

CCCCCC [hexane] + Cc1ccc(C)o1
Conditions	mass density [kg/m3]
[3], x1 = 1	655.17
